Peptide text beside a SMILES is read from it. * marks the point of attachment. Propyl(2R-PamO,3-PamO) = CCCCCCCCCCCCCCCC(=O)OC[C@H](C*)OC(=O)CCCCCCCCCCCCCCC
Assays:
[1] = target: T1, TLR2/TLR6 heterodimer (Homo sapiens, UniProt O60603+Q9Y2C9); experiment: NF-κB-dependent reporter activity in 293 cells expressing the TLR2/TLR6 heterodimer; assay type: cell-based; set-up: NF-κB activation: scale not given here; details: for activation of the NF-κB reporter (in words, compared with CBLB601): 293 cells expressing TLR2/TLR6, various doses; for NF-κB activation: in vitro activity, 293 cells expressing TLR2/TLR6
T1 construct: expressed in transfected cells; host or cells: 293 cells
T1 sequence (O60603 21-784): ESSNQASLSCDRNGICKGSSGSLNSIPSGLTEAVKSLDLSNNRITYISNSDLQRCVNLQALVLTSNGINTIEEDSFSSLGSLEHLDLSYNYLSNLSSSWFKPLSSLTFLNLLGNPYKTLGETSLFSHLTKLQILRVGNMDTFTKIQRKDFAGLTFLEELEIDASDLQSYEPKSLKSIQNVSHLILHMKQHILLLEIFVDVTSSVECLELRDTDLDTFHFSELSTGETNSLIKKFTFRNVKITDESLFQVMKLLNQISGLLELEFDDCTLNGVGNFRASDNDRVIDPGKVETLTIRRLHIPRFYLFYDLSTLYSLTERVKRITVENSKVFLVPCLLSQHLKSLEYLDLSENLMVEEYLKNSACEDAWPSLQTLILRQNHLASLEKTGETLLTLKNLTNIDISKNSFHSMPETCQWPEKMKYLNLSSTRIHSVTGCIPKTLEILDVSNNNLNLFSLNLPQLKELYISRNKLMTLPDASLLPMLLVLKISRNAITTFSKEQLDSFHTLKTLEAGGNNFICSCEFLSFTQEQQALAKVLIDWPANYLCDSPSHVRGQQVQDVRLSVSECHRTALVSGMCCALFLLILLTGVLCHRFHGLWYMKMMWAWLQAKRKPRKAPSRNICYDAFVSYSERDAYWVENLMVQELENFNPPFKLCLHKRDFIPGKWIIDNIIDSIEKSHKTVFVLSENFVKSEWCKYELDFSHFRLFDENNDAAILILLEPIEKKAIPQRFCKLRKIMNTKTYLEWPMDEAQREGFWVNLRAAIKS
T1 sequence (Q9Y2C9 32-796): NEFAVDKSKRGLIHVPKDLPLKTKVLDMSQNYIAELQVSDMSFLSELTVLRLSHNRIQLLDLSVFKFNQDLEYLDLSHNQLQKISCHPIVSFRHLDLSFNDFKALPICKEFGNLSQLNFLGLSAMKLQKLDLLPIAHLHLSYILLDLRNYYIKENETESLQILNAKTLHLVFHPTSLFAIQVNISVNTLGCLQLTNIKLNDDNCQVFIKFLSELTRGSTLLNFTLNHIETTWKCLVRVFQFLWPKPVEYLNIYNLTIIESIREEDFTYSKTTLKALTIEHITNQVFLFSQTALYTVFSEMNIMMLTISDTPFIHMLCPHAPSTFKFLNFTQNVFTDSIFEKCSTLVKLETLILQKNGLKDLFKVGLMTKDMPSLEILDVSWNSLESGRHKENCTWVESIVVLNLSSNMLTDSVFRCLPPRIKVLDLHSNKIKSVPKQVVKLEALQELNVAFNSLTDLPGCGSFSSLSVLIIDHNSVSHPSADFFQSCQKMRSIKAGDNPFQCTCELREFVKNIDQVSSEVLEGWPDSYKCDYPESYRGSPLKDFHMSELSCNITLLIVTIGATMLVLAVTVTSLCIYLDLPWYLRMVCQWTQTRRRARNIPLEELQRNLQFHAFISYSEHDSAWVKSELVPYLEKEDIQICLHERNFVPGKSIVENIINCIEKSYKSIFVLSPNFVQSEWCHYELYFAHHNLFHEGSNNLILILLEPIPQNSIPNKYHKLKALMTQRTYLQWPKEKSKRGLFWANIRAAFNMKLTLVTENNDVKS
Experimental: NF-κB-dependent reporter activity was measured in 293 cells that expressed the TLR2/YLR6 heterodimer. […] None of the non-palmitoylated corresponding peptides activated the NF-κB reporter (FIG. 18B). The peptide component of CBLB617 has a (−4) charge, which should prevent it from interacting with negatively charged cell surface markers. […] Table 5 summarizes the in vitro activity and solubility of all the compounds.

[2] = test system: ICR mice; experiment: Radioprotection against total body gamma irradiation (TBI), 30-day survival; assay type: in vivo; details: for toxicity in combination with radiation: i.m. 24 hours before 10 Gy TBI; for rank of radioprotective potency: i.m. 24 hrs before 10 Gy TBI; for radioprotector quality compared with CBLB601: mouse, in vivo; for therapeutic index: summary of Example 5
From the text: CBLB601, a R-Pam2-lipopeptide with the peptide moiety consisting of C-SKKKK (SEQ ID NO: 8), was selected for more detailed characterization as a radioprotector based upon its ability to activate NF-κB and preliminary in vivo data on radioprotection in NIH-SWISS mice (see Example 2). The objectives of this study were to determine the optimal dose, route of administration, and time of administration of CBLB601 to serve as a protector. ICR female mice of 10-15 weeks of age were used, with 10-15 animals per group or condition.
The optimal intraperitoneal administration schedule of CBLB601 was determined by injecting the compound at different times prior to irradiation. […] Therefore, all of the optimization experiments were performed with 10 Gy of total body irradiation (TBI). A dose of 3 μg of BCLB601/mouse (1/10 NOAEL) was chosen as the starting dose. Thus, 3 μg of CBLB601 was injected i.p. into ICR mice at 0.5 h, 1 h, 6 h, and 24 h or 1 h, 24 h, 48 h, 72 h, 96 h prior to 10 Gy of TBI (as described in Example 1). […] Injection of CBLB601 24 hrs before irradiation clearly yielded the best radioprotection (90-100% 30-day survival). When the compound was administered 48 hrs before irradiation, the radioprotection was ˜30%. Administration of CBLB601 at 1 hr prior to irradiation produced inconsistent results ranging from 80% protection in one experiment (FIG. 5B) to almost no protection (20%) in another experiment (FIG. 5A).
To determine the optimal radioprotective dose of CBLB601, the timing of injection and level of irradiation were kept constant, while the dose of CBLB601 was varied. ICR mice were injected i.p. with 1, 3, 10, 20, or 30 μg of CBLB601/mouse or 0.1, 0.3, 1, 3, 10, or […] 24 hrs prior to irradiation (10 Gy of TBI), and their survival was monitored for 30 days. The best protective dose was 3 μg/mouse, which supported a survival of 100% (FIGS. 6 A and B). […] Thus, the optimal protective dose of CBLB601 was determined to be 3 μg/mouse.
To determine the level of radiation that was protected by CBLB601, radioprotectant-treated and control mice were exposed to increasing levels of TBI. Groups of ICR mice were injected i.p. with either 3 μg CBLB601/mouse or PBS, and then 24 h later they received 10, 11, 12, 13, 14, and 15 Gy doses of TBI. Survival was recorded over 30 days. […] All of the mice irradiated with 10-11 Gy of TBI died between days 12-14 post irradiation, which was typical for death due to hematopoietic failure. All of the mice that received 14-15 Gy of TBI died between days 7-9 post irradiation, which was typical for mortality due to radiation-induced intestinal damage. Mice that were irradiated with 12-13 Gy of TBI died at intermediate times, which was typical for a mixed etiology of radiation-induced mortality. […] To reach a statistically significant 10% difference between control and CBLB601-treated mice, experimental groups of at least 50 mice must be used. Although CBLB601 rescued 100% of mice from 10 Gy of TBI, its protection at 11 Gy of TBI was only 20%. […] This may be indicative of a combined toxicity of the drug and the irradiation.
CBLB601 was administered intramuscularly to determine the optimal route of administration of this compound (especially since this would be the preferred route of administration for humans). […] In another experiment, increasing doses of CBLB601 administered i.m. were tested against 10, 11, and 12 Gy doses of […] (FIG. 9). […] A summary of the dose-dependency of the radioprotection of […] administered i.p. or i.m. 24 h prior to 10 Gy of TBI is shown in FIG. 10.
The optimal schedule of intramuscular administration of CBLB601 was determined by varying the time between drug delivery and irradiation. ICR mice were injected i.m. with 3 μg of CBLB601/mouse 24 h, 6 h, 3 h, and 1 h prior to TBI and +1 h, +3 h after TBI (FIG. 12A), as well as 48 h, 36 h, 24 h, 12 h, and 6 h prior to TBI (FIG. 12B). […]

[3] = Solubility of the lipopeptides
[4] = test system: mice; experiment: Mitigation of radiation injury, injection 1 hr after TBI; assay type: in vivo
Experimental: The ability of CBLB612 to serve as a mitigator of lower dose radiation injury was also examined. For this, 50 μg of CBLB612/mouse was injected intramuscularly 1 hr after exposure to 8.5, 9, or 10 Gy of TBI.

[5] = test system: C57B1/6J mice; experiment: Survival after gamma irradiation with p53 inhibitor pretreatment; assay type: in vivo; details: 10 mg/kg i.p.
Experimental: To examine the role of p53 in radiation-induced death, mice were treated with the small molecule inhibitor of p53, pifithrin-alpha (PFTα) (Komarov et al., Science 285:1733-7, 1999) immediately prior to gamma irradiation. C57B1/6J mice (6-8 weeks old males were used here and below, if not indicated otherwise) were injected intraperitoneally with 10 mg/kg of PFTα and then irradiated using a Shepherd 4000 Ci ^137Cesium source at a dose rate of 4 Gy per minute.

Row | Compound | activation of the NF-κB reporter (in words, compared with CBLB601) [1] | NF-κB activation [1] | toxicity in combination with radiation [2] | rank of radioprotective potency [2] | radioprotector quality compared with CBLB601 [2] | therapeutic index [2] | Solubility [3] | survival rate versus PBS ([4]; 50 μg/mouse i.m. 1 hr after 8.5, 9 or 10 Gy TBI) | mice surviving to 27 days ([4]; 50 μg/mouse i.m. 1 hr after 8.5 Gy TBI) | mice surviving to 27 days ([4]; 50 μg/mouse i.m. 1 hr after 9 Gy TBI) | protection (30-day survival) ([2]; doses of 10, 30 and 82.5 μg/mouse i.m. 24 hours before 10 Gy TBI) | survival ([2]; after 13 days, doses of 10-87.5 μg/mouse respectively, 10 Gy TBI) | visible toxicity ([2]; after 13 days, highest dose 87.5 μg/mouse, 10 Gy TBI) | survival of irradiated mice ([5]; fractioned cumulative 12.5 Gy (5×2.5 Gy)) | survival of irradiated mice ([5]; single 9 Gy dose) | survival of irradiated mice ([5]; single 12.5 Gy) | survival of irradiated mice ([5]; single 25 Gy)
1 | CCCCCCCCCCCCCCCC(=O)OC[C@H](CSC[C@H](N)C(=O)N[C@H](C(=O)N[C@@H](CCC(N)=O)C(=O)NCC(=O)N[C@@H](CCC(=O)O)C(=O)N[C@@H](CCC(=O)O)C(=O)N[C@@H](CO)C(=O)N[C@@H](CC(N)=O)C(=O)N[C@@H](CC(=O)O)C(=O)N[C@@H](CCCCN)C(=O)O)C(C)C)OC(=O)CCCCCCCCCCCCCCC [CBLB612] (H-C(Propyl(2R-PamO,3-PamO))VQGEESNDK-OH) | better activators than CBLB601 | 200 | no toxicity in combination with radiation | CBLB612>CBLB614>CBLB615 | significantly better radioprotectors than CBLB601 | ~20 | Excellent | increased the survival rate at every dose of radiation | 90% | 70% | – | – | – | – | – | – | –
2 | CCCCCCCCCCCCCCCC(=O)OC[C@H](CSC[C@H](N)C(=O)NCC(=O)N[C@@H](CCC(=O)O)C(=O)N[C@H](C(=O)N[C@@H](CC(=O)O)C(=O)N[C@@H](CCCCN)C(=O)O)[C@@H](C)O)OC(=O)CCCCCCCCCCCCCCC [CBLB613] (H-C(Propyl(2R-PamO,3-PamO))GETDK-OH) | comparable to that of CBLN601 | 200 | non-toxic in combination with the radiation | – | significantly better radioprotectors than CBLB601 | ~20 | Soluble | – | – | – | 100% | – | – | – | – | – | –
3 | CCCCCCCCCCCCCCCC(=O)OC[C@H](CSC[C@H](N)C(=O)N[C@@H](CCC(N)=O)C(=O)NCC(=O)N[C@@H](CCC(=O)O)C(=O)N[C@@H](CCC(=O)O)C(=O)N[C@@H](CO)C(=O)N[C@@H](CC(N)=O)C(=O)N[C@@H](CC(=O)O)C(=O)N[C@@H](CCCCN)C(=O)O)OC(=O)CCCCCCCCCCCCCCC [CBLB614] (H-C(Propyl(2R-PamO,3-PamO))QGEESNDK-OH) | better activators than CBLB601 | 200 | no toxicity in combination with radiation | CBLB612>CBLB614>CBLB615 | – | – | Soluble | – | – | – | – | – | – | – | – | – | –
4 | CCCCCCCCCCCCCCCC(=O)OC[C@H](CSC[C@H](N)C(=O)NCC(=O)N[C@@H](CCC(=O)O)C(=O)N[C@@H](CCC(=O)O)C(=O)N[C@@H](CO)C(=O)N[C@@H](CC(N)=O)C(=O)O)OC(=O)CCCCCCCCCCCCCCC [CBLB615] (H-C(Propyl(2R-PamO,3-PamO))GEESN-OH) | better activators than CBLB601 | 200 | no toxicity in combination with radiation | CBLB612>CBLB614>CBLB615 | – | – | Soluble | – | – | – | – | – | – | – | – | – | –
5 | CCCCCCCCCCCCCCCC(=O)OC[C@H](CSC[C@H](N)C(=O)NCC(=O)N[C@@H](CCC(=O)O)C(=O)N[C@@H](CCC(=O)O)C(=O)N[C@@H](CC(=O)O)C(=O)N[C@@H](CC(=O)O)C(=O)O)OC(=O)CCCCCCCCCCCCCCC [CBLB617] (H-C(Propyl(2R-PamO,3-PamO))GEEDD-OH) | comparable to that of CBLB601 | 100 | – | – | – | – | Soluble | – | – | – | – | 7-90% | no visible toxicity | – | – | – | –
6 | Cc1ccc(C(=O)Cn2c3c(sc2=N)CCCC3)cc1 [PFTα, pifithrin-alpha] | – | – | – | – | – | – | – | – | – | – | – | – | – | protected mice | protected mice | no effect on the survival | no effect on the survival

Reference: US8008260B2, “Methods of protecting against apoptosis using lipopeptides” (Cleveland Clinic Foundation, priority 2005, dated 2011)
